According to patent publication US12637469B2, “1H-pyrazole derivative and application thereof as dual target inhibitor of Syk and VEGFR2” (Ocumension Therapeutics (Suzhou) Co., Ltd., priority 2020, dated 2026):

Experiments:
Test in all cases: Eurofins KinaseProfiler off-target kinase inhibition
Assay type in all cases: biochemical
mTOR(h) = biological target: T1, mTOR(h) (Homo sapiens, UniProt P42345)
T1 construct: purchased Eurofins (KinaseProfiler service)
Method: (§1) In order to investigate the specificity of the inhibition of the target by the compound, in this study, the activity and selectivity of test compound 1 on the off-target kinases in related pathways were tested on the Eurofins kinaseProfiler™ platform, and compound screening and analysis were conducted using IC50 value as the indicator.
(§2) Compound 1 was detected for each selected kinase using the standard Eurofins Kinase Profiler™ protocol, which followed the relevant standard operating procedures. The IC50 values of the inhibitory activity of the test compound 1 on 67 kinases including Abl(h), B-Raf(h), BTK(h) and JAK(h) were analyzed.

Yes(h) = biological target: T2, Yes(h) (Homo sapiens, UniProt P07947)
T2 construct: purchased Eurofins (KinaseProfiler platform)
Method: as §1, §2

Src(T341M)(h) = biological target: T3, Src(T341M)(h) (Homo sapiens, UniProt P12931, T341M)
T3 construct: purchased Eurofins (KinaseProfiler platform)
Method: as §1, §2

MAP4K4(h) = biological target: T4, MAP4K4(h) (Homo sapiens, UniProt O95819)
T4 construct: purchased Eurofins (KinaseProfiler service)
Method: as §1, §2

IR(h) = biological target: T5, IR(h) (Homo sapiens, UniProt P06213)
T5 construct: purchased Eurofins (KinaseProfiler service)
T5 sequence (P06213 28-1382): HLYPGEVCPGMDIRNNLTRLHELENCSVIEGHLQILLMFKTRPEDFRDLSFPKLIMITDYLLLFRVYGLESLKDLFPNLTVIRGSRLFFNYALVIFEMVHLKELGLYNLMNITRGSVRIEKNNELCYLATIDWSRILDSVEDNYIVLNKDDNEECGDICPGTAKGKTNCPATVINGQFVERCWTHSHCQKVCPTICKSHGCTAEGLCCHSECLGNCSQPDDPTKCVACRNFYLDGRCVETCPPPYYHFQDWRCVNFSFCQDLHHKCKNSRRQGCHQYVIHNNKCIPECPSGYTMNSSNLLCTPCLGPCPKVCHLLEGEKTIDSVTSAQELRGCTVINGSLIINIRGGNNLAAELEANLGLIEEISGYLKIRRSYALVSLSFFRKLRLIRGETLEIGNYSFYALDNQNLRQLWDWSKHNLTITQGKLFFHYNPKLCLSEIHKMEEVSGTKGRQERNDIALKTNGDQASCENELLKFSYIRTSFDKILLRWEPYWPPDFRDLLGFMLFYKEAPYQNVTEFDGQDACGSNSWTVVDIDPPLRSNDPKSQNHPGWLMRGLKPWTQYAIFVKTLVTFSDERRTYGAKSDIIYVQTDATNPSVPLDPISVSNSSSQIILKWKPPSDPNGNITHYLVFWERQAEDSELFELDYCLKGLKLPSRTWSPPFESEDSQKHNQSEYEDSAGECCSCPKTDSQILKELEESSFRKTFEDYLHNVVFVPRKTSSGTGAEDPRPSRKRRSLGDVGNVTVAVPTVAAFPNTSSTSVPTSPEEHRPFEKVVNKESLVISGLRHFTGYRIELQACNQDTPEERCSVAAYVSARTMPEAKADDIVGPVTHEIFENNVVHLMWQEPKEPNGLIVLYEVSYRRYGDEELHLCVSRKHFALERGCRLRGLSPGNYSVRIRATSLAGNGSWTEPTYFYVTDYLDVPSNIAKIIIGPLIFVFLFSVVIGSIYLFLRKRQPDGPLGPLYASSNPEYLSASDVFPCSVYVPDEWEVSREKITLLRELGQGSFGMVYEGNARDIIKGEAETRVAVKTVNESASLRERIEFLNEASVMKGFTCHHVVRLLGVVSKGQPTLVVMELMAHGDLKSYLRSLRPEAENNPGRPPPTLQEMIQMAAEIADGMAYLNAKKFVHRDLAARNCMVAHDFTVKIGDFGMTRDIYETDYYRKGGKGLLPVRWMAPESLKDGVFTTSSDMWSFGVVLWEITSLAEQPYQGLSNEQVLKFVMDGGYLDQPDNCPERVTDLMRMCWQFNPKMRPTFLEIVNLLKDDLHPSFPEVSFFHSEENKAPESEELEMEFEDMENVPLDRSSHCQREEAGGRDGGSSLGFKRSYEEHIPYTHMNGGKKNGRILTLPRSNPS
Method: as §1, §2

CDK4/cyclinD3(h) = biological target: T6, CDK4/cyclinD3(h) (Homo sapiens, UniProt P11802)
T6 construct: purchased Eurofins (KinaseProfiler platform)
T6 sequence (P11802 whole entry): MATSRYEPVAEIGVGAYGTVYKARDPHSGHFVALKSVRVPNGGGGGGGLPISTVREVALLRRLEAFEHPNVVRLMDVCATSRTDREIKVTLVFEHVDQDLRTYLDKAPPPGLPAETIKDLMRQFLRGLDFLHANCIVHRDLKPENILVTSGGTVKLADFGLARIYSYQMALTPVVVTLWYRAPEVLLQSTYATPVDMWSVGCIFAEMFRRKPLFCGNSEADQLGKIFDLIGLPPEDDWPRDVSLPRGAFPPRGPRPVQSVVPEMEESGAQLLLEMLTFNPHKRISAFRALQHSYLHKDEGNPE
T6 sequence (P30281 whole entry partner): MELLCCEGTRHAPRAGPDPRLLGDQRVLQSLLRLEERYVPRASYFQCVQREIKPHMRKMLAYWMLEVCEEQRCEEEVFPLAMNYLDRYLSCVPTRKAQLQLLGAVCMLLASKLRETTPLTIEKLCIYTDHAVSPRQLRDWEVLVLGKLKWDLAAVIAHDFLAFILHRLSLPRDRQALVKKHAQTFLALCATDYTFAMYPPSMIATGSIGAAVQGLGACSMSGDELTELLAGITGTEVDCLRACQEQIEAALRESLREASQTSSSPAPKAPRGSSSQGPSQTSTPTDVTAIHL
Method: as §1, §2

FGFR1(h) = biological target: T7, FGFR1(h) (Homo sapiens, UniProt P11362)
T7 construct: purchased Eurofins (KinaseProfiler platform)
T7 sequence (P11362 22-822): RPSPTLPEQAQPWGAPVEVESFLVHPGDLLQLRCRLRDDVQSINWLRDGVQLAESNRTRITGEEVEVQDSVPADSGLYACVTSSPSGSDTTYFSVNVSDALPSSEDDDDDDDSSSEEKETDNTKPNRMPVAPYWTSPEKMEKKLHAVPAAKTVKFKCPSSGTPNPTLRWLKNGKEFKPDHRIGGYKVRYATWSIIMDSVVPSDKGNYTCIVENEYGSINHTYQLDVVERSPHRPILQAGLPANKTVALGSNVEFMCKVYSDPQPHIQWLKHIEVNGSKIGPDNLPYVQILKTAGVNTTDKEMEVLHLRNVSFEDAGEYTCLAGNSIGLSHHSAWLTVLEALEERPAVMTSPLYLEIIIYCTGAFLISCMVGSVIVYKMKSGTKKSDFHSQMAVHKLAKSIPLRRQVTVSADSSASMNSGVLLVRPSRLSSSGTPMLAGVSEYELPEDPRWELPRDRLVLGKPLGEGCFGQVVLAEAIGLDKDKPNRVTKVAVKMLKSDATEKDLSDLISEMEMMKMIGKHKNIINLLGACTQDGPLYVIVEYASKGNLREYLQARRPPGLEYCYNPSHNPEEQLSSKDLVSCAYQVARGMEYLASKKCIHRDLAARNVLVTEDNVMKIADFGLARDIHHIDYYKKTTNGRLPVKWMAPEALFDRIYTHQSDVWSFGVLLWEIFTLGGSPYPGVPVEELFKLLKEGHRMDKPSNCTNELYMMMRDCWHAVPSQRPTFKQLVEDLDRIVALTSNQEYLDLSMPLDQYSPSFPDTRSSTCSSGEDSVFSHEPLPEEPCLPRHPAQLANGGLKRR
Method: as §1, §2

IKKβ(h) = biological target: T8, IKKβ(h) (Homo sapiens, UniProt O14920)
T8 construct: purchased Eurofins (KinaseProfiler platform)
T8 sequence (O14920 whole entry): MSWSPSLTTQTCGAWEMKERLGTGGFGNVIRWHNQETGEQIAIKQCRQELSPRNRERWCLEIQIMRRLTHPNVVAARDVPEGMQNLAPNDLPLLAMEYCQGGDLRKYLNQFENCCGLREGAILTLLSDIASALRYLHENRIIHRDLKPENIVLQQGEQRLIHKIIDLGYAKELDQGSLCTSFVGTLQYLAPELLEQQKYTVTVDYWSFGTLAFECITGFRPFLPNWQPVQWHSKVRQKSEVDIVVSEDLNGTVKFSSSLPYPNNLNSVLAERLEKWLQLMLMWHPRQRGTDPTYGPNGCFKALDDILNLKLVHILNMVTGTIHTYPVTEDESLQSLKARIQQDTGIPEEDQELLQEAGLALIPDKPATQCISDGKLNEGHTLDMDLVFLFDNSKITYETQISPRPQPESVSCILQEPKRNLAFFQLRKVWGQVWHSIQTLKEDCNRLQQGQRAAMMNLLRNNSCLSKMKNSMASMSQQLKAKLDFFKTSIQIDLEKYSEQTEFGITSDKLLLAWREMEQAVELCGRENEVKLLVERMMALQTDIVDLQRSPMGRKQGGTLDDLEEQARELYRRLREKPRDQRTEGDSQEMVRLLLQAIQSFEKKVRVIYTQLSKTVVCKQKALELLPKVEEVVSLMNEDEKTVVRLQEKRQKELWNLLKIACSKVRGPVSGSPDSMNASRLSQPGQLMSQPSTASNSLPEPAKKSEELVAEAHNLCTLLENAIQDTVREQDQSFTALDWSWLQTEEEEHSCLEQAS
Method: as §1, §2

Rse(h) = biological target: T9, Rse(h) (Homo sapiens, UniProt Q06418)
T9 construct: purchased Eurofins (KinaseProfiler platform)
Method: as §1, §2

BTK(h) = biological target: T10, BTK(h) (Homo sapiens, UniProt Q06187)
T10 construct: purchased Eurofins (KinaseProfiler platform)
Method: as §1, §2

ACTR2(h) = biological target: T11, ACTR2(h) (Homo sapiens, UniProt P27037)
T11 construct: purchased Eurofins (KinaseProfiler platform)
T11 sequence (P27037 20-513): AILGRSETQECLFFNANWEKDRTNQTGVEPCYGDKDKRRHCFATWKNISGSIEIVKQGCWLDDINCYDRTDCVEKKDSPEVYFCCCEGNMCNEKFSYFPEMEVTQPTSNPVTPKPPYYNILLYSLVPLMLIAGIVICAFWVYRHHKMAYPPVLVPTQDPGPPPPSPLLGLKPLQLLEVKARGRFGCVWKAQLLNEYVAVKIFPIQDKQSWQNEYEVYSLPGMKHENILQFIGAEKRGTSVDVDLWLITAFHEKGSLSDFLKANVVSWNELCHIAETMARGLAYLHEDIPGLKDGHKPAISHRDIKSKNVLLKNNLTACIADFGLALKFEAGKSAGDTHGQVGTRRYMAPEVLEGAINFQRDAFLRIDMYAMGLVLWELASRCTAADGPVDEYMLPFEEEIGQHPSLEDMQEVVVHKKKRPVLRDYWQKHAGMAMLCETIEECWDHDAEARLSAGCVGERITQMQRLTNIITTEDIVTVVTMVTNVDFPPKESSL
Method: as §1, §2

cSRC(h) = biological target: T12, cSRC(h) (Homo sapiens, UniProt P12931)
T12 construct: purchased Eurofins (KinaseProfiler platform)
Method: as §1, §2

SAPK2b(h) = biological target: T13, SAPK2b(h) (Homo sapiens, UniProt Q15759)
T13 construct: purchased Eurofins (KinaseProfiler platform)
T13 sequence (Q15759 whole entry): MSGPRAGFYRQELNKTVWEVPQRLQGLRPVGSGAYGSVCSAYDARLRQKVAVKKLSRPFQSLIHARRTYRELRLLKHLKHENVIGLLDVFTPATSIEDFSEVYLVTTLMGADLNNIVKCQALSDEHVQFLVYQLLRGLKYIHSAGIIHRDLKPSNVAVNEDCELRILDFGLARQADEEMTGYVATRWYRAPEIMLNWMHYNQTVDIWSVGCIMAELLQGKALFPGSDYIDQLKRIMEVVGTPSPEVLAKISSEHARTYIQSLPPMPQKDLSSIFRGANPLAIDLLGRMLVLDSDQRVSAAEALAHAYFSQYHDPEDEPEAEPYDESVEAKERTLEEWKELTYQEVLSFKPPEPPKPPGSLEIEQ
Method: as §1, §2

MAPKAP-K2(h) = biological target: T14, MAPKAP-K2(h) (Homo sapiens, UniProt P49137)
T14 construct: purchased Eurofins (KinaseProfiler service)
Method: as §1, §2

FAK(h) = biological target: T15, FAK(h) (Homo sapiens, UniProt Q05397)
T15 construct: purchased Eurofins (KinaseProfiler service)
Method: as §1, §2

JAK1(h) = biological target: T16, JAK1(h) (Homo sapiens, UniProt P23458)
T16 construct: purchased Eurofins (KinaseProfiler service)
Method: as §1, §2

B-Raf(h) = biological target: T17, B-Raf(h) (Homo sapiens, UniProt P15056)
T17 construct: purchased Eurofins (KinaseProfiler platform)
Method: as §1, §2

JNK2α2(h) = biological target: T18, JNK2α2(h) (Homo sapiens, UniProt P45984)
T18 construct: purchased Eurofins (KinaseProfiler service)
Method: as §1, §2

PKBα(h) = biological target: T19, PKBα(h) (Homo sapiens, UniProt P31749)
T19 construct: purchased Eurofins (KinaseProfiler platform)
T19 sequence (P31749 whole entry): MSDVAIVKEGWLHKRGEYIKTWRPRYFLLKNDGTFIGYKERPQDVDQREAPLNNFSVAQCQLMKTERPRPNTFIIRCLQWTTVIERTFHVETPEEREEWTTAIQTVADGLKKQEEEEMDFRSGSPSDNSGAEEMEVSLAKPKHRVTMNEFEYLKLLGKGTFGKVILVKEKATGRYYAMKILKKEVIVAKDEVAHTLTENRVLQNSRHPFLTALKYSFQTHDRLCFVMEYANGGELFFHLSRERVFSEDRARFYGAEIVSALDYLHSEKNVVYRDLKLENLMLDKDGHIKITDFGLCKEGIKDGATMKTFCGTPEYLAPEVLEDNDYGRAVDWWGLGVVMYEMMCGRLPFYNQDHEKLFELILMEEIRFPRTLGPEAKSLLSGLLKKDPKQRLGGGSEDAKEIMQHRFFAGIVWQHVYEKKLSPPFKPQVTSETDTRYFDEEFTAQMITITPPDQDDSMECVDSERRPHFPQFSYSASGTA
Method: as §1, §2

CSK(h) = biological target: T20, CSK(h) (Homo sapiens, UniProt P41240)
T20 construct: purchased Eurofins (KinaseProfiler platform)
Method: as §1, §2

CK1ε(h) = biological target: T21, CK1ε(h) (Homo sapiens, UniProt P49674)
T21 construct: purchased Eurofins (KinaseProfiler platform)
Method: as §1, §2

Fyn(h) = biological target: T22, Fyn(h) (Homo sapiens, UniProt P06241)
T22 construct: purchased Eurofins (KinaseProfiler platform)
Method: as §1, §2

SAPK4(h) = biological target: T23, SAPK4(h) (Homo sapiens, UniProt O15264)
T23 construct: purchased Eurofins (KinaseProfiler platform)
Method: as §1, §2

Flt1(h) = biological target: T24, Flt1(h) (Homo sapiens, UniProt P17948)
T24 construct: purchased Eurofins (KinaseProfiler platform)
Method: as §1, §2

MEK2(h) = biological target: T25, MEK2(h) (Homo sapiens, UniProt P36507)
T25 construct: purchased Eurofins (KinaseProfiler service)
Method: as §1, §2

JAK3(h) = biological target: T26, JAK3(h) (Homo sapiens, UniProt P52333)
T26 construct: purchased Eurofins (KinaseProfiler service)
Method: as §1, §2

PDGFRα(h) = biological target: T27, PDGFRα(h) (Homo sapiens, UniProt P16234)
T27 construct: purchased Eurofins (KinaseProfiler service)
Method: as §1, §2

Txk(h) = biological target: T28, Txk(h) (Homo sapiens, UniProt P42681)
T28 construct: purchased Eurofins (KinaseProfiler platform)
Method: as §1, §2

MAPK1(h) = biological target: T29, MAPK1(h) (Homo sapiens, UniProt P27361)
T29 construct: purchased Eurofins (KinaseProfiler service)
Method: as §1, §2

Lck(h)activated = biological target: T30, Lck(h)activated (Homo sapiens, UniProt P06239)
T30 construct: purchased Eurofins (KinaseProfiler service)
Method: as §1, §2

SAPK2a(h) = biological target: T31, SAPK2a(h) (Homo sapiens, UniProt Q16539)
T31 construct: purchased Eurofins (KinaseProfiler platform)
Method: as §1, §2

BRK(h) = biological target: T32, BRK(h) (Homo sapiens, UniProt Q13882)
T32 construct: purchased Eurofins (KinaseProfiler platform)
Method: as §1, §2

JAK2(h) = biological target: T33, JAK2(h) (Homo sapiens, UniProt O60674)
T33 construct: purchased Eurofins (KinaseProfiler service)
Method: as §1, §2

MKK4(m) = biological target: T34, MKK4(m) (Mus musculus, UniProt P47809)
T34 construct: purchased Eurofins (KinaseProfiler service)
Method: as §1, §2

SAPK3(h) = biological target: T35, SAPK3(h) (Homo sapiens, UniProt P53778)
T35 construct: purchased Eurofins (KinaseProfiler platform)
Method: as §1, §2

JNK1α1(h) = biological target: T36, JNK1α1(h) (Homo sapiens, UniProt P45983)
T36 construct: purchased Eurofins (KinaseProfiler service)
Method: as §1, §2

Src(1-530)(h) = biological target: T37, Src(1-530)(h) (Homo sapiens, UniProt P12931)
T37 construct: Src(1-530)(h); purchased Eurofins (KinaseProfiler platform)
Method: as §1, §2

Tie2(h) = biological target: T38, Tie2(h) (Homo sapiens, UniProt Q02763)
T38 construct: purchased Eurofins (KinaseProfiler platform)
Method: as §1, §2

IC50 (mTOR(h)): > 10000 nM | IC50 (Yes(h)): 204 nM | IC50 (Src(T341M)(h)): 1010 nM | IC50 (MAP4K4(h)): 63 nM | IC50 (IR(h)): > 10000 nM | IC50 (CDK4/cyclinD3(h)): > 10000 nM | IC50 (FGFR1(h)): 847 nM | IC50 (IKKβ(h)): > 10000 nM | IC50 (Rse(h)): > 10000 nM | IC50 (BTK(h)): 1040 nM | IC50 (ACTR2(h)): > 10000 nM | IC50 (cSRC(h)): 367 nM | IC50 (SAPK2b(h)): > 10000 nM | IC50 (MAPKAP-K2(h)): > 10000 nM | IC50 (FAK(h)): 469 nM | IC50 (JAK1(h)): 663 nM | IC50 (B-Raf(h)): 91 nM | IC50 (JNK2α2(h)): > 10000 nM | IC50 (PKBα(h)): > 10000 nM | IC50 (CSK(h)): > 10000 nM | IC50 (CK1ε(h)): 385 nM | IC50 (Fyn(h)): 373 nM | IC50 (SAPK4(h)): > 10000 nM | IC50 (Flt1(h)): 104 nM | IC50 (MEK2(h)): > 10000 nM | IC50 (JAK3(h)): 550 nM | IC50 (PDGFRα(h)): 2700 nM | IC50 (Txk(h)): 227 nM | IC50 (MAPK1(h)): > 10000 nM | IC50 (Lck(h)activated): 1310 nM | IC50 (SAPK2a(h)): > 10000 nM | IC50 (BRK(h)): 775 nM | IC50 (JAK2(h)): 141 nM | IC50 (MKK4(m)): > 10000 nM | IC50 (SAPK3(h)): > 10000 nM | IC50 (JNK1α1(h)): 1170 nM | IC50 (Src(1-530)(h)): 827 nM | IC50 (Tie2(h)): 2060 nM
SMILES: c1cn2c(n1)c(Nc1ccc(N3CCOCC3)cc1)nc1ccc(-c3cn[nH]c3)cc12 [Compound 1]
